Data from US20260130395A1, “Water Dispersible Botanical Compositions” (Aquila Black Limited, priority 2021, published 2026).

Test: Stability of cannabinoid compounds and Vitamin E components in Beverage 1 (AB White) by LCMSMS
Format: physicochemical
Conditions: for Stability of Plant-Derived Cannabinoid Compounds in AB White, 8° C.: AB White stored at 8° C.; for Stability of Plant-Derived Cannabinoid Compounds in AB White, 21-25° C.: AB White stored at 21-25° C.

## CCCc1cc(O)c2c(c1)OC(C)(C)[C@@H]1CCC(C)=C[C@@H]21 [THCV, delta-9-tetrahydrocannabivarin]
0 days
  Stability of Plant-Derived Cannabinoid Compounds in AB White, 8° C.: 3.6 µg/mL
  Stability of Plant-Derived Cannabinoid Compounds in AB White, 21-25° C.: 3.6 µg/mL
1 days
  Stability of Plant-Derived Cannabinoid Compounds in AB White, 8° C.: 3.54 µg/mL
  Stability of Plant-Derived Cannabinoid Compounds in AB White, 21-25° C.: 3.48 µg/mL
2 days
  Stability of Plant-Derived Cannabinoid Compounds in AB White, 8° C.: 3.60 µg/mL
  Stability of Plant-Derived Cannabinoid Compounds in AB White, 21-25° C.: 3.58 µg/mL
3 days
  Stability of Plant-Derived Cannabinoid Compounds in AB White, 8° C.: 3.55 µg/mL
  Stability of Plant-Derived Cannabinoid Compounds in AB White, 21-25° C.: 3.54 µg/mL
5 days
  Stability of Plant-Derived Cannabinoid Compounds in AB White, 8° C.: 3.58 µg/mL
  Stability of Plant-Derived Cannabinoid Compounds in AB White, 21-25° C.: 3.55 µg/mL
8 days
  Stability of Plant-Derived Cannabinoid Compounds in AB White, 8° C.: 3.60 µg/mL
  Stability of Plant-Derived Cannabinoid Compounds in AB White, 21-25° C.: 3.63 µg/mL
9 days
  Stability of Plant-Derived Cannabinoid Compounds in AB White, 8° C.: 3.61 µg/mL
  Stability of Plant-Derived Cannabinoid Compounds in AB White, 21-25° C.: 3.55 µg/mL
10 days
  Stability of Plant-Derived Cannabinoid Compounds in AB White, 8° C.: 3.58 µg/mL
  Stability of Plant-Derived Cannabinoid Compounds in AB White, 21-25° C.: 3.55 µg/mL
11 days
  Stability of Plant-Derived Cannabinoid Compounds in AB White, 8° C.: 3.59 µg/mL
  Stability of Plant-Derived Cannabinoid Compounds in AB White, 21-25° C.: 3.59 µg/mL
12 days
  Stability of Plant-Derived Cannabinoid Compounds in AB White, 8° C.: 3.50 µg/mL
  Stability of Plant-Derived Cannabinoid Compounds in AB White, 21-25° C.: 3.47 µg/mL
15 days
  Stability of Plant-Derived Cannabinoid Compounds in AB White, 8° C.: 3.56 µg/mL
  Stability of Plant-Derived Cannabinoid Compounds in AB White, 21-25° C.: 3.48 µg/mL
16 days
  Stability of Plant-Derived Cannabinoid Compounds in AB White, 8° C.: 3.57 µg/mL
  Stability of Plant-Derived Cannabinoid Compounds in AB White, 21-25° C.: 3.60 µg/mL
17 days
  Stability of Plant-Derived Cannabinoid Compounds in AB White, 8° C.: 3.61 µg/mL
  Stability of Plant-Derived Cannabinoid Compounds in AB White, 21-25° C.: 3.51 µg/mL
18 days
  Stability of Plant-Derived Cannabinoid Compounds in AB White, 8° C.: 3.59 µg/mL
  Stability of Plant-Derived Cannabinoid Compounds in AB White, 21-25° C.: 3.50 µg/mL
19 days
  Stability of Plant-Derived Cannabinoid Compounds in AB White, 8° C.: 3.51 µg/mL
  Stability of Plant-Derived Cannabinoid Compounds in AB White, 21-25° C.: 3.59 µg/mL
22 days
  Stability of Plant-Derived Cannabinoid Compounds in AB White, 8° C.: 3.60 µg/mL
  Stability of Plant-Derived Cannabinoid Compounds in AB White, 21-25° C.: 3.52 µg/mL
23 days
  Stability of Plant-Derived Cannabinoid Compounds in AB White, 8° C.: 3.55 µg/mL
  Stability of Plant-Derived Cannabinoid Compounds in AB White, 21-25° C.: 3.57 µg/mL
24 days
  Stability of Plant-Derived Cannabinoid Compounds in AB White, 8° C.: 3.56 µg/mL
  Stability of Plant-Derived Cannabinoid Compounds in AB White, 21-25° C.: 3.63 µg/mL
25 days
  Stability of Plant-Derived Cannabinoid Compounds in AB White, 8° C.: 3.56 µg/mL
  Stability of Plant-Derived Cannabinoid Compounds in AB White, 21-25° C.: 3.54 µg/mL
26 days
  Stability of Plant-Derived Cannabinoid Compounds in AB White, 8° C.: 3.63 µg/mL
  Stability of Plant-Derived Cannabinoid Compounds in AB White, 21-25° C.: 3.55 µg/mL
29 days
  Stability of Plant-Derived Cannabinoid Compounds in AB White, 8° C.: 3.52 µg/mL
  Stability of Plant-Derived Cannabinoid Compounds in AB White, 21-25° C.: 3.62 µg/mL
30 days
  Stability of Plant-Derived Cannabinoid Compounds in AB White, 8° C.: 3.59 µg/mL
  Stability of Plant-Derived Cannabinoid Compounds in AB White, 21-25° C.: 3.48 µg/mL
60 days
  Stability of Plant-Derived Cannabinoid Compounds in AB White, 8° C.: 3.58 µg/mL
  Stability of Plant-Derived Cannabinoid Compounds in AB White, 21-25° C.: 3.50 µg/mL
90 days
  Stability of Plant-Derived Cannabinoid Compounds in AB White, 8° C.: 3.56 µg/mL
  Stability of Plant-Derived Cannabinoid Compounds in AB White, 21-25° C.: 3.47 µg/mL
120 days
  Stability of Plant-Derived Cannabinoid Compounds in AB White, 8° C.: 3.56 µg/mL
  Stability of Plant-Derived Cannabinoid Compounds in AB White, 21-25° C.: 3.45 µg/mL
150 days
  Stability of Plant-Derived Cannabinoid Compounds in AB White, 8° C.: 3.55 µg/mL
  Stability of Plant-Derived Cannabinoid Compounds in AB White, 21-25° C.: 3.54 µg/mL
180 days
  Stability of Plant-Derived Cannabinoid Compounds in AB White, 8° C.: 3.59 µg/mL
  Stability of Plant-Derived Cannabinoid Compounds in AB White, 21-25° C.: 3.52 µg/mL
210 days
  Stability of Plant-Derived Cannabinoid Compounds in AB White, 8° C.: 3.44 µg/mL
  Stability of Plant-Derived Cannabinoid Compounds in AB White, 21-25° C.: 3.40 µg/mL
240 days
  Stability of Plant-Derived Cannabinoid Compounds in AB White, 8° C.: 3.56 µg/mL
  Stability of Plant-Derived Cannabinoid Compounds in AB White, 21-25° C.: 3.41 µg/mL
270 days
  Stability of Plant-Derived Cannabinoid Compounds in AB White, 8° C.: 3.47 µg/mL
  Stability of Plant-Derived Cannabinoid Compounds in AB White, 21-25° C.: 3.56 µg/mL
300 days
  Stability of Plant-Derived Cannabinoid Compounds in AB White, 8° C.: 3.46 µg/mL
  Stability of Plant-Derived Cannabinoid Compounds in AB White, 21-25° C.: 3.52 µg/mL
330 days
  Stability of Plant-Derived Cannabinoid Compounds in AB White, 8° C.: 3.52 µg/mL
  Stability of Plant-Derived Cannabinoid Compounds in AB White, 21-25° C.: 3.55 µg/mL
360 days
  Stability of Plant-Derived Cannabinoid Compounds in AB White, 8° C.: 3.50 µg/mL
  Stability of Plant-Derived Cannabinoid Compounds in AB White, 21-25° C.: 3.49 µg/mL
390 days
  Stability of Plant-Derived Cannabinoid Compounds in AB White, 8° C.: 3.47 µg/mL
  Stability of Plant-Derived Cannabinoid Compounds in AB White, 21-25° C.: 3.40 µg/mL
420 days
  Stability of Plant-Derived Cannabinoid Compounds in AB White, 8° C.: 3.49 µg/mL
  Stability of Plant-Derived Cannabinoid Compounds in AB White, 21-25° C.: 3.46 µg/mL
450 days
  Stability of Plant-Derived Cannabinoid Compounds in AB White, 8° C.: 3.44 µg/mL
  Stability of Plant-Derived Cannabinoid Compounds in AB White, 21-25° C.: 3.47 µg/mL
480 days
  Stability of Plant-Derived Cannabinoid Compounds in AB White, 8° C.: 3.44 µg/mL
  Stability of Plant-Derived Cannabinoid Compounds in AB White, 21-25° C.: 3.30 µg/mL
510 days
  Stability of Plant-Derived Cannabinoid Compounds in AB White, 8° C.: 3.34 µg/mL
  Stability of Plant-Derived Cannabinoid Compounds in AB White, 21-25° C.: 3.32 µg/mL
540 days
  Stability of Plant-Derived Cannabinoid Compounds in AB White, 8° C.: 3.32 µg/mL
  Stability of Plant-Derived Cannabinoid Compounds in AB White, 21-25° C.: 3.44 µg/mL
570 days
  Stability of Plant-Derived Cannabinoid Compounds in AB White, 8° C.: 3.30 µg/mL
  Stability of Plant-Derived Cannabinoid Compounds in AB White, 21-25° C.: 3.30 µg/mL
